Entries after “also recorded” stand apart in the source; their conditions may differ.
How the values were obtained:
D2S (h) = target: T1, D2S (h) (Homo sapiens, UniProt P14416); assay: Radioligand binding D2S (h) (agonist radioligand), [^3H]7-OH-DPAT, HEK-293 cells
T1 construct: expressed in transfected cells; host or cells: HEK-293 cells
Method: (§1) Methods—Binding Assays: In vitro binding assays were performed using human recombinant receptors expressed in mammalian cell lines. Receptors were expressed in either HEK-293 or CHO cells depending on the target, and assay conditions (radioligand, concentration, nonspecific competitor, temperature, and incubation time) were optimized for each receptor. All assays were conducted in triplicate, and specific binding was quantified by scintillation counting as the detection method for each listed assay.
(§2) Specific binding was expressed as a percentage of control-specific binding, and percent inhibition was calculated using the formula in Ex. 8 above. Half-maximal inhibitory concentrations (IC50) were determined by non-linear regression analysis of the inhibition curves using the Hill equation (see Ex. 8). Inhibition constants (Ki) were calculated using the Cheng-Prusoff equation (see Ex. 8). KD values used in these calculations had been previously established for each receptor under the assay conditions (see Table 6). Data analysis was performed using software developed at Cerep and validated against SigmaPlot 4.0 for Windows.

M2 (h) = target: T2, M2 (h) (Homo sapiens, UniProt P08172); assay: Radioligand binding M2 (h) (antagonist radioligand), [^3H]AF-DX 384, CHO cells
T2 construct: expressed in transfected cells; host or cells: CHO cells
T2 sequence (P08172 1-466): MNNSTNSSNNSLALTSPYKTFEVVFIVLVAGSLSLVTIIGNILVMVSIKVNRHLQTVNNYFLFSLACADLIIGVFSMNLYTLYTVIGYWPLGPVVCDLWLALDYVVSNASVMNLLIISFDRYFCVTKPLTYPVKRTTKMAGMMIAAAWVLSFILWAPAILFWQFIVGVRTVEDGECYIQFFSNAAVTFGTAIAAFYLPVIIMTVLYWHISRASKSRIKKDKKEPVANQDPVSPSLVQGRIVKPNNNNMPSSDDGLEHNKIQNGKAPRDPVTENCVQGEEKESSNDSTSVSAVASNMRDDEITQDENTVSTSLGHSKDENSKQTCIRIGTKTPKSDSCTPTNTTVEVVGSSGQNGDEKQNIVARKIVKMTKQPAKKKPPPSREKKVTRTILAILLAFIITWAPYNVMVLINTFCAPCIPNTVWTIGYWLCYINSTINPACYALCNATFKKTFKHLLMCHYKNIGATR
Method: as §1, §2

kappa (KOP) (h) = target: T3, kappa (KOP) (h) (Homo sapiens, UniProt P41145); assay: Radioligand binding kappa (KOP) (h) (agonist radioligand), [^3H]U69593, RBL cells; details: kappa (h) (KOP) (agonist radiolig.)
T3 construct: expressed in transfected cells; host or cells: RBL cells
T3 sequence (P41145 whole entry): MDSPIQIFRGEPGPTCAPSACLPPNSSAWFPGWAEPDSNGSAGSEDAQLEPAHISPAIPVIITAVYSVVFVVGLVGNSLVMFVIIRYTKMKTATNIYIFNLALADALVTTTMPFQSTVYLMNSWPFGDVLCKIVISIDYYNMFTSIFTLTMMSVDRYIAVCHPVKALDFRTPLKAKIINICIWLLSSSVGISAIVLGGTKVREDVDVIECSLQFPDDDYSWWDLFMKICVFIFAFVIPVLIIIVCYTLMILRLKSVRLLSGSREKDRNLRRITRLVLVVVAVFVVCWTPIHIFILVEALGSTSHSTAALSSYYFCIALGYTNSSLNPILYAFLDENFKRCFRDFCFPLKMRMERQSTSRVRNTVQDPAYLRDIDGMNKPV

μ (MOP) (h) = target: T4, μ (MOP) (h) (Homo sapiens, UniProt P35372); assay: Radioligand binding μ (MOP) (h) (agonist radioligand), [^3H]DAMGO, HEK-293 cells
T4 construct: expressed in transfected cells; host or cells: HEK-293 cells
T4 sequence (P35372 whole entry): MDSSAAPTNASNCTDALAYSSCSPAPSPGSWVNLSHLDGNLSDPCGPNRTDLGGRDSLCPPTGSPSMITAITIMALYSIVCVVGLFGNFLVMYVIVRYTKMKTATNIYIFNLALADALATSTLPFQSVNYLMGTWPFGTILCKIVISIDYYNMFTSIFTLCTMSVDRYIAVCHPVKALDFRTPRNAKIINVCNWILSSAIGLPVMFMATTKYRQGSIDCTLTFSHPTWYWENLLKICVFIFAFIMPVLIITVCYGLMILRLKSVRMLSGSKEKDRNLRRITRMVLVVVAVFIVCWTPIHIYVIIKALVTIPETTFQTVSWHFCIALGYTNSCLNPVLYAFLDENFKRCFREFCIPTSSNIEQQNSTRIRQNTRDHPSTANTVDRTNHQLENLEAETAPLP
Method: as §1, §2

COX1(h) = COX1(h) (Homo sapiens, UniProt P23219); assay: Enzyme assay COX1(h), arachidonic acid + ADHP, fluorimetry; assay type: biochemical
Chain of COX1(h) (P23219 24-599): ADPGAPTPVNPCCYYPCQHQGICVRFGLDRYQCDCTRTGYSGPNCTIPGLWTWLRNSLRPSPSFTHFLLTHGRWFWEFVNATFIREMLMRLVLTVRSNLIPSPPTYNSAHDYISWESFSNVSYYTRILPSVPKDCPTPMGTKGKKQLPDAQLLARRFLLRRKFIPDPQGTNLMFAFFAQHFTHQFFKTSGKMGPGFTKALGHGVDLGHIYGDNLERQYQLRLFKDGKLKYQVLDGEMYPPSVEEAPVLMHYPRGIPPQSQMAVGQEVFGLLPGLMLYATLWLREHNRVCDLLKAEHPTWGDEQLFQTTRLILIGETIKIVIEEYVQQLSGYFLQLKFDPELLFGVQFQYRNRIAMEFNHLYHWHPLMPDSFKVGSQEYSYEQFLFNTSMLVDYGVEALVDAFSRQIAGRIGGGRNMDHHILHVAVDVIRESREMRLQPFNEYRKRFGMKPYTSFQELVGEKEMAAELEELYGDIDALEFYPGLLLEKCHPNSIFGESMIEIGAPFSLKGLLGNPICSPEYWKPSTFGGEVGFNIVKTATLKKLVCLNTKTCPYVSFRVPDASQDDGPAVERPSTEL
Method: Methods—Enzyme and Uptake Assays: In vitro enzyme and uptake assays were conducted by Eurofins Discovery using human recombinant enzymes expressed in various mammalian and insect cell lines. Enzymatic activity was measured using appropriate substrates or tracers under conditions optimized for each target, as detailed in Table 7. Reactions were incubated at room temperature for a defined duration and terminated according to established protocols. The measured components (either enzymatic products or remaining substrate) were quantified using fluorimetry, photometry, scintillation counting, or LANCE technology, depending on the assay. Assay-specific parameters, including substrate identity, cell line source, incubation time, and detection method, are provided in Table 7.
All measurements were performed in technical replicates to ensure reproducibility and data quality.
Results were expressed both as a percentage of control-specific activity and as percent inhibition of control-specific activity. Percent activity was calculated as (measured specific activity/control specific activity)×100, and percent inhibition as 100−[(measured specific activity/control specific activity)×100], based on values obtained in the presence of test compounds. IC50 and EC50 values, along with Hill coefficients (nH), were determined by nonlinear regression analysis of inhibition or concentration-response curves generated from mean replicate values. Hill curve fitting was performed as previously described using software developed at Cerep and validated against SigmaPlot® 4.0 for Windows® (© 1997 by SPSS Inc.).

male C57BL/6J mice = assay: Mouse head-twitch response (HTR) assay, magnetometer; assay type: in vivo; details: i.p.; for HTR (head twitch response), in words: doses up to 30 mpk
5-HT2B = 5-HT2B (Homo sapiens, UniProt P41595); assay: Calcium flux agonist assay, 293T cells; assay type: cell-based; design: expressed in transfected cells; host or cells: Human Embryonic Kidney (293T) cells, transient; details: for Emax: HEK-293T, normalized to maximum 5-HT response; for 5-HT2B receptor activation: in words
Chain of 5-HT2B (P41595 whole entry): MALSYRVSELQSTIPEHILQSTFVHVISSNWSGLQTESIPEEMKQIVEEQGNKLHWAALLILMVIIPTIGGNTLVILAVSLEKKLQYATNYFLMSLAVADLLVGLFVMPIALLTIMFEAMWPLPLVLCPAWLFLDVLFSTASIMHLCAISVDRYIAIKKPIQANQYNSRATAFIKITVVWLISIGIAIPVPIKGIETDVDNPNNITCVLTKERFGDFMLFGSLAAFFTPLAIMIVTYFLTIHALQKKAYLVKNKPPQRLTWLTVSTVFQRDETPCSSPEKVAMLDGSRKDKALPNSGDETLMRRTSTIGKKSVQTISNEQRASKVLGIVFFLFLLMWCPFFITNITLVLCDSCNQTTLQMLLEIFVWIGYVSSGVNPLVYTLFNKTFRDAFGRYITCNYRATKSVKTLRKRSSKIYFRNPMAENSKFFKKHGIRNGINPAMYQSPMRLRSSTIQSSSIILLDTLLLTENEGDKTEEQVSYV

5-HT2A = 5-HT2A (Homo sapiens, UniProt P28223); assay: IP-One HTRF IP-1 accumulation functional assay, 5-HT2A-expressing HEK293; assay type: cell-based; design: host or cells: HEK293
Chain of 5-HT2A (P28223 whole entry, looked up): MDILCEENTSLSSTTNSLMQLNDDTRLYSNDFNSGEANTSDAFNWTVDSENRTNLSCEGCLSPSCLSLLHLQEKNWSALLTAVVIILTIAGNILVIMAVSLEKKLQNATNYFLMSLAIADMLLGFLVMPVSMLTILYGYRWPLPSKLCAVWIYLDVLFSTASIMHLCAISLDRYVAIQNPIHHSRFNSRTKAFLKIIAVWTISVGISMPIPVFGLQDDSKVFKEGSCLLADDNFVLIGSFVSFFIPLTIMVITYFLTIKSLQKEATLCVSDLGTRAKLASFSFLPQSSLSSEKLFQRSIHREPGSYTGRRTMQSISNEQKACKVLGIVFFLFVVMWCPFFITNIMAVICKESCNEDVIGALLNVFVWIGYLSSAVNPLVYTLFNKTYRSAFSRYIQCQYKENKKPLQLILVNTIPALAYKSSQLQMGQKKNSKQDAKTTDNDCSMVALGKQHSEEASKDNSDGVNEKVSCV
Method: Methods (5-HT2A and 5-HT2C IP-One Functional Activity Assays): Intracellular accumulation of IP-1 was measured using an IP-One HTRF assay kit (Cat. #62IPAPEJ, Cisbio) at WuXi AppTec Co. Ltd. (Hong Kong) Discovery Biology Unit according to their standard protocols. Briefly, the reference compounds and screening compounds were 3.16-fold serially diluted in 100% DMSO for 10 points using Bravo. 70 nL of compounds were added to the assay plate using Echo555. Added 14 μL/7500 cells/well of 5-HT2A-expressing HEK293 or 5-HT2C-expressing HEK293 to the assay plate and incubate for 60 min at 37° C. Added 3 μL of IP-1 d2 Reagent working solution and 3 μL of IP-1 Tb Cryptate Antibody working solution to all wells. The plates were incubated for 1 hour at room temperature and read for fluorescence at 620 nm and 665 nm on an EnVision Multimode Plate Reader (PerkinElmer). The ratio of the acceptor and donor emission signals (665/620) were calculated for each individual well and substituted into the standard curve to obtain the log concentration of IP level. After converting to the antilog base IP-1, the average background control signal was subtracted from each well and values were normalized to the maximal response of 5-HT at 3 μM (100%). % MAX was calculated by taking the average normalized maximal response for each compound at the highest concentration tested. The data were analyzed using the four-parameter nonlinear regression curve-fitting function in GraphPad Prism 5 (GraphPad Software, San Diego, CA) to generate potency (EC50) values. The represented plots show normalized IP-1 values versus compound concentrations; the corresponding numerical data are parameter estimates for the concentration-response curve using the four-parameter nonlinear regression curve-fitting function in GraphPad Prism 10.

T1 sequence (P14416 1-414 isoform P14416-2): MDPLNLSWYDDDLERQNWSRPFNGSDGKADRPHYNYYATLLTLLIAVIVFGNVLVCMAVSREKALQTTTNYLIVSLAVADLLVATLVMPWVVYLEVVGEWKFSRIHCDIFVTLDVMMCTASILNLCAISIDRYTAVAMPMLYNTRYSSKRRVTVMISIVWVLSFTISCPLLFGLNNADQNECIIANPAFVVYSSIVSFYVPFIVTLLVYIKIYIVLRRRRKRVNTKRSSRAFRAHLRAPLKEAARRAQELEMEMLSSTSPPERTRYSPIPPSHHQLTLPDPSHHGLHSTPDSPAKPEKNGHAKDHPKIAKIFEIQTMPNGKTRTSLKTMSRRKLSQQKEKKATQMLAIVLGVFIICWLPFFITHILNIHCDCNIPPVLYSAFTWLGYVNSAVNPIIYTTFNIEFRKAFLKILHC

Structure (SMILES)	Mean Percent Inhibition of Control Specific Binding (D2S (h)) [%]	Mean Percent Inhibition of Control Specific Binding (M2 (h)) [%]	Mean Percent Inhibition of Control Specific Binding (kappa (KOP) (h)) [%]	Mean Percent Inhibition of Control Specific Binding (μ (MOP) (h)) [%]	Mean Percent Inhibition of Control Specific Binding (COX1(h)) [%]	HTR (head twitch response), in words (male C57BL/6J mice)	Emax (5-HT2B; calcium flux, 5-HT2B) [%]	Potency (EC50) (5-HT2B; calcium flux, 5-HT2B)	5-HT2B receptor activation (5-HT2B; calcium flux)	EC50 (5-HT2A) [µM]	EC50 (5-HT2B) [µM]	ED50 based on HTR counts (male C57BL/6J mice; HTR counts summed over a 30-60 min interval) [mpk]
COCc1cc(CCN)c(O)cc1CC(C)C [2CiBu-2OH-5MM, 2-(2-aminoethyl)-5-isobutyl-4-(methoxymethyl)phenol]	46.6	14.9	28.2	24.4	−37.4	did not produce meaningful HTR across the tested dose range	2.64	Unstable	unexpectedly reduced 5-HT2B receptor activation			
COCCc1cc(CCN)c(OC)cc1Br [Compound 2CB-5ME, reference compound]	83.0	21.5	11.2	28.6	−4.7	did not produce statistically significant changes in HTR				0.227		
COCc1cc(CCN)c(OC)cc1Br [Compound 2CB-5MM, 2-(4-bromo-2-methoxy-5-(methoxymethyl)phenyl)ethan-1-amine]	89.4	10.0	11.4	31.1	0.3	did not elicit a significant HTR at any tested dose	94			0.0591	0.0234	
COCc1cc(CCN)c(OC)cc1CC(C)C [Compound 2CiBu-5MM, 2-[4-isobutyl-2-methoxy-5-(methoxymethyl)phenyl]ethanamine]	12.9	16.0	29.8	31.5	13.8	subtle suppression of HTR during the first 15 min followed by a rebound in HTR counts during the last 30 min segment; also recorded: HTR counts remained near baseline throughout the observation period; also recorded: overall neutral effect compared to vehicle HTR occurrences	45.7		unexpectedly reduced 5-HT2B receptor activation	0.341	0.497	5.926

Reference: patent US12692221B2 (priority 2024, dated 2026)
